Experimental data published in PubChem BioAssay AID743317 (Broad Institute, 2014).
Records with an inconclusive call do not appear. Active and inactive are the calls of the source.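 The calls were made as follows: active = fitted curve reaches 40% activation at or below the top valid dose, and every replicate test is called active; inconclusive = replicate tests disagree, some active and some inactive; inactive = all replicate tests inactive, including activity in the wrong direction.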

Molecular target: Endoplasmic reticulum aminopeptidase 1 (Homo sapiens) (UniProt Q9NZ08)
Test: ERAP1 aminopeptidase activity change, dose response, biochemical, fluorescence, cherry-pick (AID 743317)
Details: ERAP1 enzyme, Leu-AMC fluorescence, 60 min

Sequence of Endoplasmic reticulum aminopeptidase 1 (Homo sapiens) (Q9NZ08 whole entry, looked up): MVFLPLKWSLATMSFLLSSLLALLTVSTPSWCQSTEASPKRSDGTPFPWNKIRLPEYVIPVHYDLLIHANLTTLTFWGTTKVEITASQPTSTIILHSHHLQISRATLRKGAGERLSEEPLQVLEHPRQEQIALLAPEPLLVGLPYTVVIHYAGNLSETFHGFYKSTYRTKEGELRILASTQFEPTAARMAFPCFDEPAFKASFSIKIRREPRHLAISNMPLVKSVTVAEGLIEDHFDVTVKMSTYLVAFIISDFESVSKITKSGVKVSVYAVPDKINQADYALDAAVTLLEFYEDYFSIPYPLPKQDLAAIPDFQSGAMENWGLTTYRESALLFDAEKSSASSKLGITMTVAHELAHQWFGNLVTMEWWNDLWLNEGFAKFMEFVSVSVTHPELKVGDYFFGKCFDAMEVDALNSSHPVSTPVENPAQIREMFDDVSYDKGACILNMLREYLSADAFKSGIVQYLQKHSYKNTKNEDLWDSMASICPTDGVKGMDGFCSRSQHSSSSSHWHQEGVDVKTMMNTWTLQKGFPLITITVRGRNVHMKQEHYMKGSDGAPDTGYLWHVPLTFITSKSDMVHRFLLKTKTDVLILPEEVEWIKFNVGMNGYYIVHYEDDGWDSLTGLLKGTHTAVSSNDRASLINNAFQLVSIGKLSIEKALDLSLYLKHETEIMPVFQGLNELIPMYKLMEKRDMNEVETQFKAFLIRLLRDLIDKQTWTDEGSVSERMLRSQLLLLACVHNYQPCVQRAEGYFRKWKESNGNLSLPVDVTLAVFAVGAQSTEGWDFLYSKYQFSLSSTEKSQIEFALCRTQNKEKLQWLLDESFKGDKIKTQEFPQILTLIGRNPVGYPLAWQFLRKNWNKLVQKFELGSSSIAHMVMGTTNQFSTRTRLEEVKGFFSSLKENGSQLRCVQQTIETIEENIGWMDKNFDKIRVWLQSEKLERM

Compound | activity increase (activation) (at 11 µM (top of the series)) | AC40 [nM] | other results
CN1CCCC1CCNc1ccc2c(=O)c3ccccc3oc2c1 (configuration not stated) | -115% (inactive) |  | 
COC(=O)Cc1c(C)c2ccc(O)c(CNCc3ccc(OC)c(OC)c3)c2oc1=O |  |  | activity increase (activation) (at 5.6 µM (top of the series)): -74.1% (inactive)
O=C(C[C@@H]1CC[C@@H]2[C@H](COC[C@H](O)CN2C(=O)Nc2cccc(Cl)c2)O1)N1CCCCC1 |  | 364 | 
Cc1ccc(S(=O)(=O)c2cc3ccc(O)cc3oc2=O)cc1C |  | 2990 | 
O=C(C[C@H]1CC[C@H]2[C@@H](COC[C@@H](O)CN2C(=O)Nc2cccc(Cl)c2)O1)N1CCCCC1 |  | 211 | 
O=S(=O)(c1ccc(N2CCC(c3ccc(Cl)cc3)=N2)cc1)N(CCO)CCO | -40.9% (inactive) |  | 
CCN1[C@H](C(=O)Nc2nccs2)[C@@H](CO)[C@@H]2Cn3c(ccc(/C=C/c4ccccc4)c3=O)[C@@H]21 |  |  | activity increase (activation) (at 10 µM (top of the series)): -13.4% (inactive)
O=c1oc2c(CN3CCN(CCO)CC3)c(O)ccc2cc1-c1ccccn1 | -80.1% (inactive) |  | 
CCCNC(=O)C[C@H]1CC[C@@H]2[C@H](COC[C@H](O)CN2C(=O)Nc2cccc(Cl)c2)O1 |  | 3410 | 
CCc1cc(=O)oc2c(CN3CCN(C)CC3)c(O)ccc12 | -65.3% (inactive) |  | 
O=c1ccc2cc(O)c(O)cc2o1 | -53.9% (inactive) |  | 
Cc1cc(=O)oc2c(CN3CCCC3)c(O)ccc12 | -44% (inactive) |  | 
CCCCCCC[C@H](N)[C@H](O)C(=O)N(C)[C@@H](CCS(C)=O)C(=O)N[C@@H](Cc1ccc(O)cc1)C(=O)N[C@@H](Cc1ccc(O)cc1)C(=O)O (some centres not stated) | -57.4% (inactive) |  | 
CC(=O)Oc1cc2oc(=O)cc(C)c2cc1Cl |  | 1020 | 
COCCCn1c(C(=O)N2CCOCC2)cc2c(=O)n3ccccc3nc21 | -46.9% (inactive) |  | 
CC1CCN(Cc2cc(=O)oc3cc(O)c(Cl)cc23)CC1 |  |  | activity increase (activation) (at 5.6 µM (top of the series)): -36.5% (inactive)
CCc1c(C)c2cc(Cl)c(O)c(CN(CC)CC)c2oc1=O | -62.3% (inactive) |  | 
CCOC(=O)C[n+]1ccc2c([nH]c3ccccc32)c1C | -38.3% (inactive) |  | 
Cc1cc(=O)oc2c(CN3CCCC3)c(O)c(Cl)cc12 | -73.8% (inactive) |  | 
O=C(C[C@H]1CC[C@@H]2[C@H](COC[C@@H](O)CN2C(=O)Nc2cccc(Cl)c2)O1)N1CCCCC1 |  | 812 | 
Cc1c(C)c2ccc(O)c(CN3CCCC3)c2oc1=O | -57% (inactive) |  | 
CCc1c(C)c2cc(Cl)c(O)c(CN(C)C)c2oc1=O | -92.5% (inactive) |  | 

Now from value to compound, other results behind:

activity increase (activation) (at 11 µM (top of the series)) | AC40 [nM] | Compound | other results
 | 2770 | Cc1noc(C)c1NC(=O)Nc1ccc2c(c1)C(=O)N([C@H](C)CO)C[C@@H](C)[C@@H](CN(C)Cc1ccc(C(F)(F)F)cc1)OCCCC[C@@H](C)O2 | 
 | 246 | COc1ccc(C(=O)O)cc1S(=O)(=O)Nc1cc(C(F)(F)F)ccc1N1CCCCC1 | 
 | 107 | CCCN(C)C[C@@H]1OCCCC[C@@H](C)Oc2ccc(NS(=O)(=O)c3cccs3)cc2C(=O)N([C@H](C)CO)C[C@@H]1C | 
 | 1410 | C[C@H]1CN([C@@H](C)CO)C(=O)c2cccc(NC(=O)Nc3ccc(C(F)(F)F)cc3)c2O[C@@H]1CN(C)C | 
-52% (inactive) |  | Cc1cc(=O)oc2cc(NS(=O)(=O)c3ccc(F)cc3)ccc12 | 
 | 442 | COc1ccc(C2=NN(c3ccc(C(=O)O)cc3)C(c3ccc(OC)c(OC)c3)C2)cc1 (configuration not stated) | 
 | 704 | C[C@H](CO)N1C[C@H](C)[C@H](CN(C)Cc2ccncc2)Oc2c(NC(=O)Nc3ccc(C(F)(F)F)cc3)cccc2C1=O | 
 | 408 | C[C@@H]1CCCCO[C@@H](CN(C)Cc2ccc(C(=O)O)cc2)[C@@H](C)CN([C@H](C)CO)C(=O)c2cc(NC(=O)Nc3cccc4ccccc34)ccc2O1 | 
30.6% (inactive) |  | C[C@@H]1CN([C@@H](C)CO)C(=O)c2cccc(NC(=O)Nc3ccc(C(F)(F)F)cc3)c2O[C@@H]1CN(C)C | 
 | 5560 | C[C@H]1CN([C@@H](C)CO)C(=O)c2cccc(NC(=O)Nc3ccc(F)cc3)c2O[C@@H]1CN(C)C(=O)Nc1ccc2c(c1)OCO2 | 
-31.8% (inactive) |  | CCCNC(=O)N(C)C[C@@H]1Oc2ncc(-c3ccncc3)cc2C(=O)N([C@H](C)CO)C[C@@H]1C | 
 | 5640 | Cc1noc(C)c1NC(=O)N(C)C[C@@H]1Oc2c(NC(=O)Nc3ccc(F)cc3)cccc2C(=O)N([C@H](C)CO)C[C@@H]1C | 
 | 1150 | COc1ccc(CN(C)C[C@@H]2OCCCC[C@@H](C)Oc3ccc(NS(=O)(=O)c4cccs4)cc3C(=O)N([C@H](C)CO)C[C@H]2C)cc1 | 
 | 2550 | C[C@H](CO)N1C[C@H](C)[C@H](CN(C)CC2CCCCC2)Oc2c(NC(=O)Nc3ccc4c(c3)OCO4)cccc2C1=O | 
 | < 80 | C[C@@H]1CCCCO[C@@H](CN(C)CC2CC2)[C@@H](C)CN([C@H](C)CO)C(=O)c2cc(NS(=O)(=O)c3cccs3)ccc2O1 | 
